Results reported in patent US20260125762A1, “METHODS OF IDENTIFYING AND TREATING TUMORS WITH SIGMA1 INHIBITORS” (Drexel University, priority 2016, published 2026).

Legend:
[1] = system: COLO205; experiment: NCI-60 single-dose in vitro growth inhibition assay; format: cell-based, human; details: single-dose 10 μM
Experimental: (§1) As in FIG. 1, Compound CT-110 was used in single-dose (10 μM) in vitro growth inhibition assays of the NCI-60 cell lines. The NCI-60 panel contains 60 diverse human cancer cell lines screened with more than 100,000 chemical compounds for anticancer activity since 1990 by the Developmental Therapeutics Program (DTP). See Huang, et al., 2005, Pharmacogenomics J. 5:381-99; Staunton, et al., 2001, PNAS USA 98(19):10787-92; Covell, et al., 2007, Mol. Cancer Ther. 6:2261-70; Potti, et al., 2006. Nat. Med. 12(11):1294-300. Standardization of NCI-60 inhibition data into Z-scores. NCI-60 cell line percent growth data obtained after culture in the presence of CT-110 were converted to percent growth inhibition by the formula 100−% Growth. A Z-score for each cell line data point was calculated using the formula (X-value minus 60-element array average)/(Array standard deviation). Z-scores are associated with a normal distribution and are used (1) to indicate where a score lies relative to the entire data set, above or below the mean, and (2) to compare scores derived from different normal distributions. Narrowing the 25K+ CellMiner genes to a CT-110 inhibition signature set of 6 genes. Pattern comparison searching yielded a list of 1,080 genes having significant Pearson correlations (r>0.334 or r<−0.334) to the NCI-60 Z-score profile of CT-110. Cross-referencing this profile-matching list with 1,106 cancer-relevant genes comprising a 755-gene PanCancer and Custom Codeset, supplemented with 545 “Cancer Driver” genes (Integrative OncoGenomics, BROAD Institute TARGET Database v3, Targeted Therapies for Cancer), reduced the number of genes to fifty (50). NCI-60-based Z-score profiles for these 50 genes were obtained using the CellMiner “Cell Line Signature Analysis” query. […] Z-scores, reflective of gene expression level and directionality, were used to identify forty-five (45) genes out of the […] (Table 3) that had expression either up or down in at least 4 out of the 5 CT-110-sensitive or resistant cell lines (assessed independently). […] These six genes (CDH1, CREB3L4, PIK3C2B, RNF43, SREBF1 and ZMYM2) are the end result of the rational approach to establish a focused set of genes, with expression profiles reflecting the growth inhibition profile of CT-110 in sensitive and resistant cancer cell lines.

[2] = system: HT29; experiment: as above; format: cell-based, human; details: single-dose 10 μM
Experimental: as §1

[3] = system: MCF7; experiment: as above; format: cell-based, human; details: single-dose 10 μM
Experimental: as §1

[4] = system: OVCAR-3; experiment: as above; format: cell-based, human; details: single-dose 10 μM
Experimental: as §1

[5] = system: OVCAR-8; experiment: as above; format: cell-based, human; details: single-dose 10 μM
Experimental: as §1

[6] = system: RPMI-8226; experiment: as above; format: cell-based, human; details: single-dose 10 μM
Experimental: as §1

[7] = system: SK-MEL-28; experiment: as above; format: cell-based, human; details: single-dose 10 μM
Experimental: as §1

[8] = system: SK-MEL-2; experiment: as above; format: cell-based, human; details: single-dose 10 μM
Experimental: as §1

[9] = system: SK-MEL-5; experiment: as above; format: cell-based, human; details: single-dose 10 μM
Experimental: as §1

[10] = system: UACC-257; experiment: as above; format: cell-based, human; details: single-dose 10 μM
Experimental: as §1

[11] = system: BT474; experiment: BT474 orthotopic xenograft tumor growth; format: in vivo, female SCID Beige mice; details: BT474 (predicted sensitive) in mammary fat pad; 10 mg/kg ip q2d; treatment stopped Day 30
Experimental: (§2) BT474 cells (ATCC, Manassas, VA, cat #HTB-20) were implanted orthotopically (2×10^6 per mouse) as a mixture in Matrigel (50%) into the mammary fat pad of female SCID Beige mice (10 mice per treatment arm) and grown to a volume of about 125 mm^3 prior to compound administration. CT-110 was dosed alone at 10 mg/kg ip, once every two days (ip, q2d) in 1% (weight/volume) sodium carboxymethyl cellulose/0.5% (volume/volume) Tween-80. A control group received vehicle alone (1% (weight/volume) sodium carboxymethyl cellulose/0.5% (volume/volume) Tween-80ip q2d). All drug treatment was stopped on Day 30. The major endpoint is to assess whether the tumor growth can be delayed or mice can be cured. Tumor sizes are measured twice weekly in two dimensions using a caliper, and the volume is expressed in mm^3 using the formula: V=0.5 a×b^2 where a and b are the long and short diameters of the tumor, respectively. The tumor sizes are then used for the calculations of both T-C and T/C values. T-C is calculated with T as the median time (in days) required for the treatment group tumors to reach a predetermined size (e.g., 1,000 mm^3), and C is the median time (in days) for the control group tumors to reach the same size. The T/C value (in percent) is an indication of antitumor effectiveness, T and C are the mean volume of the treated and control groups, respectively, on a given day.

[12] = system: MDAMB231; experiment: MDAMB231 orthotopic xenograft tumor growth; format: in vivo, female SCID Beige mice; details: MDAMB231 (predicted resistant) in mammary fat pad; 10 mg/kg ip q2d; treatment stopped Day 20
Experimental: as §2, with “MDAMB231” for “BT474”, “#HTB-26)” for “#HTB-20)”, “75” for “125”, “20.” for “30.”

Q: Which results are given for N=C(NCCCOc1ccc(F)cc1)Nc1ccc(Cl)cc1 [CT-110, 1-(3-(4-fluorophenoxy)propyl)-3-(4-chlorophenyl)guanidine]?
A: sensitivity to Sigma1 inhibition by CT-110 (growth inhibition rank in NCI-60) [1]: most sensitive; sensitivity to Sigma1 inhibition by CT-110 (growth inhibition rank in NCI-60) [2]: most sensitive; sensitivity to Sigma1 inhibition by CT-110 (growth inhibition rank in NCI-60) [3]: most sensitive; sensitivity to Sigma1 inhibition by CT-110 (growth inhibition rank in NCI-60) [4]: most resistant; sensitivity to Sigma1 inhibition by CT-110 (growth inhibition rank in NCI-60) [5]: most resistant; sensitivity to Sigma1 inhibition by CT-110 (growth inhibition rank in NCI-60) [6]: most resistant; sensitivity to Sigma1 inhibition by CT-110 (growth inhibition rank in NCI-60) [7]: most resistant; sensitivity to Sigma1 inhibition by CT-110 (growth inhibition rank in NCI-60) [8]: most resistant; sensitivity to Sigma1 inhibition by CT-110 (growth inhibition rank in NCI-60) [9]: most sensitive; sensitivity to Sigma1 inhibition by CT-110 (growth inhibition rank in NCI-60) [10]: most sensitive; tumor growth T/C [11]: 70%; tumor growth T/C [12]: < 10%
